According to patent US3960845A, “Process for preparing 7β-acylamino-7α-alkoxycephalosporins or 6β-acylamino-6α-alkoxypenicillins” (Sankyo Company Limited, priority 1974, dated 1976):
In brackets after ≈: the same amount, converted by molar mass. Where two headings read alike, the source gives them in different places.

Experiments:
Assay type in all cases: cell-based
[1] = test system: Staphylococcus aureus 209p; experiment: Minimal inhibitory concentration; conditions: I A: Staphylococcus aureus 209p; read-out: Minimal inhibitory concentration
Source text: (§1) Minimal inhibitory concentrations of various microorganisms mcg/ml
1 A Staphylococcus aureus 209p

[2] = test system: Staphylococcus aureus (CP and PC resistant); experiment: Minimal inhibitory concentration; conditions: I B: Staphylococcus aureus (CP and PC resistant)
Source text: as §1
1 B Staphylococcus aureus

E. coli NIHJ = experiment: Minimal inhibitory concentration; conditions: Escherichia coli; II A: E. coli NIHJ
Source text: as §1

Proteus vulgaris = experiment: Minimal inhibitory concentration; conditions: V: Proteus vulgaris; read-out: Minimal inhibitory concentration
Source text: as §1

[3] = test system: E. coli 609 (CER resistant); experiment: Minimal inhibitory concentration; conditions: Escherichia coli; II B: E. coli 609 (CER resistant); read-out: Minimal inhibitory concentration
Source text: as §1
II B E. coli 609 (CER resistant)

[4] = test system: Shigella flexneri Komagome; experiment: Minimal inhibitory concentration; conditions: read-out: Minimal inhibitory concentration
Source text: as §1
III Shigella flexneri Komagome

Klebsiella neumoniae 806 = experiment: Minimal inhibitory concentration; conditions: IV A: Klebsiella neumoniae 806; read-out: Minimal inhibitory concentration
Source text: as §1
IV A Klebsiella neumoniae 806

[5] = test system: Klebsiella neumoniae 846 (CER resistant); experiment: Minimal inhibitory concentration; conditions: IV B: Klebsiella neumoniae 846 (CER resistant)
Source text: as §1
IV B Klebsiella neumoniae 846 (CER resistant)

[6] = test system: Salmonella enteritidis Gaertner; experiment: Minimal inhibitory concentration; conditions: Salmonella enterica; VI: Salmonella enteritidis Gaertner; read-out: Minimal inhibitory concentration
Source text: as §1
VI Salmonella enteritidis Gaertner

[7] = test system: broad pathogenic microorganisms; experiment: antimicrobial activity; conditions: result in words
[8] = III: Shigella flexneri Komagome

Row | SMILES | MIC [1] [µg/mL] | MIC [2] [µg/mL] | MIC (E. coli NIHJ) [µg/mL] | MIC (Proteus vulgaris) [µg/mL] | MIC [3] [µg/mL] | MIC [4, 8] [µg/mL] | MIC (Klebsiella neumoniae 806) [µg/mL] | MIC [5] [µg/mL] | MIC [6] [µg/mL] | antimicrobial activity against broad pathogenic microorganisms [7] | MIC ([4]; Shigella flexneri) [µg/mL]
1 | CO[C@@]1(NC(=O)CSCN=[N+]=[N-])C(=O)N2C(C(=O)O)=C(COC(C)=O)CS[C@@H]21 [7β-azidomethylthioacetamido-7α-methoxy-3-acetoxymethyl-3-cephem-4-carboxylic acid] | 0.4 (≈ 0.927 µM) | 0.8 (≈ 1.85 µM) | 6.2 (≈ 14.4 µM) | 3.1 (≈ 7.19 µM) | 6.2 (≈ 14.4 µM) | 6.2 (≈ 14.4 µM) | 6.2 (≈ 14.4 µM) | > 200 | 1.5 (≈ 3.48 µM) | excellent antimicrobial activity | 
2 | CO[C@@]1(NC(=O)CSCC#N)C(=O)N2C(C(=O)O)=C(COC(C)=O)CS[C@@H]21 [7β-cyanomethylthioacetamido-7α-methoxy-3-acetoxymethyl-3-cephem-4-carboxylic acid] | 0.2 (≈ 0.481 µM) | 0.8 (≈ 1.93 µM) | 1.5 (≈ 3.61 µM) | 6.2 (≈ 14.9 µM) | 1.5 (≈ 3.61 µM) | 3.1 (≈ 7.46 µM) | 1.5 (≈ 3.61 µM) | > 400 | 0.8 (≈ 1.93 µM) | excellent antimicrobial activity | 
3 | CO[C@@]1(NC(=O)CSCC#N)C(=O)N2C(C(=O)O)=C(COC(N)=O)CS[C@@H]21 [7β-cyanomethylthioacetamido-7α-methoxy-3-carbamoyloxymethyl-3-cephem-4-carboxylic acid] | 0.8 (≈ 1.92 µM) | 1.5 (≈ 3.6 µM) | 1.5 (≈ 3.6 µM) | 6.2 (≈ 14.9 µM) | 0.8 (≈ 1.92 µM) | 3.1 (≈ 7.44 µM) | 0.4 (≈ 0.961 µM) | > 400 | 0.4 (≈ 0.961 µM) | excellent antimicrobial activity | 
4 | CO[C@@]1(NC(=O)CS(C)(=O)=O)C(=O)N2C(C(=O)O)=C(CSc3nnnn3C)CS[C@@H]21 [7β-methylsulfonylacetamido-7α-methoxy-3-(1-methyl-1H-tetrazole-5-yl)thiomethyl-3-cephem-4-carboxylic acid] | 0.8 (≈ 1.67 µM) | 3.1 (≈ 6.48 µM) | 1.5 (≈ 3.13 µM) | 12.5 (≈ 26.1 µM) | 1.5 (≈ 3.13 µM) | 1.5 (≈ 3.13 µM) | 0.8 (≈ 1.67 µM) | 400 (≈ 836 µM) | 0.4 (≈ 0.836 µM) | excellent antimicrobial activity | 
5 | C#CCSCC(=O)N[C@]1(OC)C(=O)N2C(C(=O)O)=C(CSc3nnnn3C)CS[C@@H]21 [7β-propargylthioacetamido-7α-methoxy-3-(1-methyl-1H-tetrazol-5-yl)thiomethyl-3-cephem-4-carboxylic acid] | 0.2 (≈ 0.425 µM) | 0.8 (≈ 1.7 µM) | 3.1 (≈ 6.59 µM) | 3.1 (≈ 6.59 µM) | 3.1 (≈ 6.59 µM) | 3.1 (≈ 6.59 µM) | 3.1 (≈ 6.59 µM) | 400 (≈ 850 µM) | 0.8 (≈ 1.7 µM) | excellent antimicrobial activity | 
6 | C#CCSCC(=O)N[C@]1(OC)C(=O)N2C(C(=O)O)=C(COC(C)=O)CS[C@@H]21 [7β-propargylthioacetamido-7α-methoxy-3-acetoxymethyl-3-cephem-4-carboxylic acid] | 0.8 (≈ 1.93 µM) | 3.1 (≈ 7.48 µM) | 3.1 (≈ 7.48 µM) | 6.2 (≈ 15 µM) | 6.2 (≈ 15 µM) | 6.2 (≈ 15 µM) | 6.2 (≈ 15 µM) | > 400 | 1.5 (≈ 3.62 µM) | excellent antimicrobial activity | 
7 | C#CCSCC(=O)N[C@]1(OC)C(=O)N2C(C(=O)O)=C(COC(N)=O)CS[C@@H]21 [7β-propargylthioacetamido-7α-methoxy-3-carbamoyloxymethyl-3-cephem-4-carboxylic acid] | 0.8 (≈ 1.93 µM) | 1.5 (≈ 3.61 µM) | 3.1 (≈ 7.46 µM) | 6.2 (≈ 14.9 µM) | 3.1 (≈ 7.46 µM) |  | 3.1 (≈ 7.46 µM) | > 400 | 1.5 (≈ 3.61 µM) | excellent antimicrobial activity | 6.2 (≈ 14.9 µM)
